Source: patent US20090305993A1, “METHODS AND COMPOSITION FOR THE TREATMENT OF GASTROINTESTINAL DISORDERS” (IRONWOOD PHARMACEUTICALS, INC., priority 2006, published 2009)
Where a SMILES comes first, the peptide text is derived from it. Bridges are numbered along the chain shown (N, C = ends).

How the values were obtained:
adult male Wistar rats = test: basal visceral nociception (visceromotor response to CRD); format: in vivo, rat
Experimental: The effect of SEQ ID NO:3 on basal visceral nociception in a model of water avoidance stress-induced visceral hyperalgesia in adult male Wistar rats was tested. The stress involved confining rats to a platform surrounded by water for a period of 1 hour and then measuring their visceromotor response to colonic distension using electromyography (EMG).
Electrode leads were then tunneled subcutaneously and externalized laterally for future access. Following surgery, rats were housed in pairs and allowed to recover for at least 7 days. On the day of the experiment, animals were lightly anesthetized with halothane, and a lubricated latex balloon (6 cm) was inserted intra-anally into the descending colon. Animals were allowed to recover for 30 minutes, and colorectal distension (CRD) was initiated. The CRD procedure consisted of graded intensities of phasic CRD (10, 20, 40, 60 mmHg; 20 s duration; 4 min inter-stimulus interval). Visceromotor response (VMR) to CRD was quantified by measuring EMG activity. […] Animals were allowed 1 hour recovery and then SEQ ID NO:3 or vehicle was orally administered. At 1 hour following administration of SEQ ID NO:3 or vehicle CRD was repeated. […] The mean value (+/−SEM) of in vehicle and SEQ ID NO:3 treated groups (n=7 for each group) is graphically depicted in FIG. 7e.

WT and GC-C KO mice = test: colorectal distension under basal conditions in WT and GC-C KO mice; format: in vivo, mouse; details: oral 0.01 and 0.3 μg/kg
Experimental: TNBS induced visceral hypersensitivity was assessed in WT and GC-C KO mice. Two groups (WT and GC-C KO) of male mice (22-25 g) were surgically prepared for electromyographic (EMG) recordings. Three electrodes were implanted in the striated muscles of the abdomen for EMG recording of abdominal contractions. Colorectal distension (CRD) was performed with a balloon inflated by 10s steps of 0.02 ml from 0 to 0.12 ml. Under basal conditions mice were submitted to control CRD (time 0) followed by oral administration of SEQ ID NO:3 (0.01 and 0.3 μg/kg) or vehicle only (distilled water, 1 ml) at 3 hours. One hour post dosing the CRD procedure was repeated. Abdominal EMG contractile response to colorectal distension in basal conditions in both WT and GC-C KO mice (12-14 mice per group) was determined in the absence of vehicle and SEQ ID NO:3, and the mean+/−standard error of the mean (SEM) is graphically depicted in FIG. 7c.

[1] = system: healthy males and postmenopausal females; test: single oral dose study in humans, bowel habits (BSFS); format: in vivo, human
Experimental: Single doses of 30, 100, 300, 1000 or 3000 μg of chemically synthesized SEQ ID NO:3 were given to 30 healthy males and postmenopausal females. At each dose level (100 μg was done twice) SEQ ID NO:3 or placebo (vehicle) was administered orally in 5.0 mL 50 mM phosphate buffer (pH 6.0) plus 3×20 mL water rinses and 175 mL water after at least a 10-hour fast. In each dosing group, subjects were randomized to receive either placebo (1 subject) or SEQ ID NO:3 (3-4 subjects). Bowel habits (including Bristol Stool Form Scale score (BSFS; FIG. 14a), stool frequency, and stool weight) were evaluated for each collected bowel movement 48 hours prior to dose and up to approximately 48 hours postdose.

suckling mice = test: suckling mouse model of intestinal secretion (SuMi assay); format: in vivo; details: dose response, FIG. 5a, 5b
Experimental: In this model a test compound is administered to suckling mice that are between 7 and 9 days old. After the mice are sacrificed, the gastrointestinal tract from the stomach to the cecum is dissected (“guts”). The remains (“carcass”) as well as the guts are weighed and the ratio of guts to carcass weight is calculated. If the ratio is above 0.09, one can conclude that the test compound increases intestinal secretion. […] The effect of Zelnorm® was also studied.

[2] = oral bioavailability in rats, LCMS; format: in vivo, rat; details: SEQ ID NO:3 10 mg/kg
Experimental: Similarly, oral bioavailability was determined in rats using LCMS methodology. Rat plasma samples containing SEQ ID NO:3 and/or SEQ ID NO:6 were extracted using a Waters Oasis MAX 96 well solid phase extraction (SPE) plate. A 200 μL volume of rat plasma was mixed with 200 μL of ^13C9, ^15N—SEQ ID NO:3 in the well of a prepared SPE plate. The samples were drawn through the stationary phase with 15 mm Hg vacuum. All samples were rinsed with 200 μL of 2% ammonium hydroxide in water followed by 200 μL of 20% methanol in water. The samples were eluted with consecutive 100 μL volumes of […] formic acid/water/methanol and 100 μL 5/15/80 formic acid/water/methanol. The samples were dried under nitrogen and resuspended in 100 μL of 20% methanol in water. Samples were analyzed by a Waters Quattro Micro mass spectrometer coupled to a Waters 1525 binary pump with a Waters 2777 autosampler. A 40 μL volume of each sample was injected onto a Thermo Hypersil GOLD C18 column (2.1×50 mm, 5 um). SEQ ID NO:3 and SEQ ID NO:6 were eluted by a gradient over 3 minutes with acetonitrile and water containing 0.05% trifluoroacetic acid. The Quattro Micro mass spectrometer was run in multiple reaction monitoring (MRM) mode using the mass transitions of 764>182 and 682>136 for SEQ ID NO:3 and SEQ ID NO:6 respectively. Using this methodology, SEQ ID NO:3 was dosed orally and by IV to rats at 10 mg/kg. […] In this experiment, the limit of detection (LOD) for SEQ ID NO:6 was 0.78 nM. SEQ ID NO:6 was detected at all time points for the intravenous dose and was not detected beyond 240 min for the oral dose. For non-detected values, the LOD was used as an upper estimate of the concentration of SEQ ID NO:6. The calculated value for AUCp.o., (0-6h) was <1308 nM-min and AUCi.v.,(0-6h) was 1,590,000 nM-min. The 6 h bioavailability of SEQ ID NO:6 determined by circulating plasma levels was 0.08%

## C[C@@H]1NC(=O)[C@@H]2CCCN2C(=O)[C@H](CC(N)=O)NC(=O)[C@@H]2CSSC[C@H](N)C(=O)N[C@H]3CSSC[C@H](NC1=O)C(=O)N[C@@H]([C@@H](C)O)C(=O)NCC(=O)N[C@H](C(=O)N[C@@H](Cc1ccc(O)cc1)C(=O)O)CSSC[C@H](NC(=O)[C@H](Cc1ccc(O)cc1)NC(=O)[C@H](CCC(=O)O)NC3=O)C(=O)N2 [SEQ ID NO:3] (H-CCEYCCNPACTGCY-OH; disulfide 1-6, 2-10, 5-13; N-terminus and C-terminus assumed)
Adult male Wistar rats; oral 3 μg/kg
  basal visceral nociception: no effects
Adult male Wistar rats; oral 30 μg/kg, versus vehicle, FIG. 7e
  basal visceral nociception: increased basal visceral nociception
WT and GC-C KO mice
  EMG response to colorectal distension: decreased the EMG response to colorectal distension
[1]; 1000 μg dose group, mean pre-dose compared to peak 48 hours post-dose, FIG. 14c
  percent of subjects with at least a 2-point increase in BSFS consistency score: highest percent of subjects
[1]; single oral dose 30-3000 μg
  BSFS post-dose scores versus dose: Higher BSFS post-dose scores correlated with a higher dose
[1]; single oral dose 30-3000 μg, FIG. 14b
  maximum BSFS score: increase
Suckling mice
  intestinal secretion (ratio of guts to carcass weight): increase intestinal secretion
[2]
  6 h bioavailability when AUC values for SEQ ID NO:6 are included: 0.13%
